Results reported in patent US10300004B2, “Cosmetic composition for preventing or ameliorating skin damage caused by ultraviolet light” (CUSKIN CO., LTD, priority 2015, dated 2019).

How the values were obtained:
[1] = system: human epidermis; conditions: Placzek M et al. 2005; cited from earlier work
[2] = system: Human dermal fibroblasts (HDFs); experiment: MTT viability of dermal fibroblasts under UVB irradiation; assay type: cell-based
Protocol: (§1) Human dermal fibroblasts (HDFs) and immortalized keratinocyte cell line (HaCaT) were cultured using DMEM (low, high glucose, Hyclone, Thermo Scientific, Logan, Utah, USA) supplemented with 10% FBS (Gibco, Invitrogen, Carlsbad, Calif., USA), 1% penicillin, and streptomycin (Gibco) at 37° C. with 5% CO2 in a humidified atmosphere (Kim W S et al., (2009) Journal of dermatological science 53: 96-102). Said cultures were performed by exchanging with fresh media every two days.
(§2) HDFs (3×10^4 cells/well) and HaCaT (4×10^4 cells/well) were seeded in 6-well plates. Cells were treated with various concentrations of MVE. Cells were then incubated for 48 hours and the MTT assay was performed. MTT solution (5 mg/ml in phosphate buffered saline) was added to each well at 1/20 of the media volume, incubated for 2 hours, and then supernatant was removed. Dimethyl sulfoxide (DMSO) was then added to dissolve formazan crystals, and the absorbance was measured at 595 nm using an ELISA reader (TECAN, Grodig, Austria).

[3] = system: Human dermal fibroblasts (HDFs); experiment: MTT proliferation assay in dermal fibroblasts; assay type: cell-based; conditions: 100~1000 nM; p<0.01; FIG. 1B
Protocol: as §1, §2

[4] = system: collagen type I; experiment: RT-PCR of collagen mRNA in dermal fibroblasts; assay type: cell-based, Human
Protocol: (§3) Total RNA of HDFs and HaCaT was extracted with Trizol reagent followed by reverse transcription to cDNA. The following oligonucleotides were used as primers: collagen type I [5′-[…]-3′ (SEQ ID NO: 1) and 5′-[…]-3′ (SEQ ID NO: 2)], MMP-1 [5′-[…]-3′ (SEQ ID NO: 3) and 5′-[…]-3′ (SEQ ID NO: 4)], and control GAPDH [5′-[…]-3′ (SEQ ID NO: 5) and 5′-[…]-3′ (SEQ ID NO: 6)]. PCR was carried out in a total volume of 30 μl for PCR amplification of cDNA that was reverse-transcribed from the total RNA. After initial denaturation at 95° C. for 5 minutes, amplification was performed in 35 cycles for 30 seconds at 95° C., 20 seconds at 54° C., and 30 seconds at 72° C. This was followed by a final extension at 72° C. for another 10 minutes. GAPDH mRNA level was used for sample standardization.

[5] = system: matrix metalloproteinase 1 (MMP1); experiment: RT-PCR of MMP1 mRNA in dermal fibroblasts; assay type: cell-based, Human
Protocol: as §3

[6] = system: collagen; experiment: Western blot of collagen protein in fibroblasts; assay type: cell-based, Human; conditions: FIG. 2C
Protocol: (§4) Cells (2×10^5 cells/ml) were seeded in a 60 mm dish and cultured to 80% confluence. Cells were treated with MVE. Cells were then lysed with 1×RIPA buffer (50 mM Tris-HCl, 0.15 M NaCl, 1 mM EDTA, 1% Triton-X100, pH 7.4, 1% SDS, 50 mM NaF, 1 mM Na3VO4, 5 mM Dithiothreitol, 1 mg/ml Leupeptin, and 1 mM phenylmethylsulfonyl fluoride). Sample protein (40 μg) was separated in 10-12% SDS-polyacrylamide gels by electrophoresis. Proteins were transferred to PVDF membranes and incubated with antibodies to collagen (1:1000 rabbit source, Santa Cruz Biotechnology, Santa Cruz, Calif., USA) and matrix metalloproteinase 1 (MMP1, 1:1000 rabbit source, Santa Cruz Biotechnology). Membranes were then washed and incubated with horseradish peroxidase-conjugated anti-rabbit IgG antibody (Santa Cruz Biotechnology). Blots were reacted with western reagent (ECL; Millipore Billerica, Ann Arbor, Mass., USA) and exposed to X-ray film.

[7] = system: matrix metalloproteinase 1 (MMP1); experiment: Western blot of MMP1 protein in fibroblasts; assay type: cell-based, Human; conditions: FIG. 2C
Protocol: as §4

[8] = system: fibroblasts; experiment: Cellular ROS generation assay (DCF-DA) in fibroblasts; assay type: cell-based, Human; conditions: UVB, MVE 1000 nM, p<0.01, FIG. 3a
Protocol: (§5) Cellular ROS generation was measured using 2′,7′-dichlorodihydrofluorescein diacetate (DCF-DA, Molecular Probes, Eugene, Oreg., USA), as described previously (Hye Kim J et al., Stem cells 33: 542-556). Similarly, mitochondrial ROS (mtROS) generation was measured using Mito-Sox (Molecular Probes). Cells were seeded in 6-well plates in 0.2% FBS and cultured overnight. […] Each well was imaged every 10 minutes for 40 minutes under standard incubation conditions using an IncuCyte™ ZOOM microscope placed inside an incubator. Image-based analysis of fluorescence intensity was carried out using IncuCyte™ software (Essen Bioscience, MI, USA).

[9] = system: fibroblasts; experiment: Mitochondrial ROS generation assay (Mito-Sox) in fibroblasts; assay type: cell-based, Human; conditions: UVB, MVE 1000 nM, p<0.01, FIG. 3b
Protocol: as §5

[10] = system: HaCaT cells; experiment: MTT proliferation assay in HaCaT cells; assay type: cell-based, Human; conditions: dose-dependent; p<0.05; FIG. 4A
Protocol: as §1, §2

[11] = system: HaCaT cells; experiment: MTT viability of HaCaT cells under UVB; assay type: cell-based, Human; conditions: p<0.01, FIG. 4B
Protocol: as §1, §2

[12] = system: p53; experiment: p53 protein levels in HaCaT cells after UVB; assay type: cell-based, Human; conditions: FIG. 4C
[13] = system: HaCaT cells; experiment: Cellular ROS generation assay (DCF-DA) in HaCaT cells; assay type: cell-based, Human; conditions: UVB, MVE 1000 nM, p<0.01, FIG. 5a
Protocol: as §5

[14] = system: HaCaT cells; experiment: Mitochondrial ROS generation assay (Mito-Sox) in HaCaT cells; assay type: cell-based, Human; conditions: UVB, MVE 1000 nM, p<0.01, FIG. 5b
Protocol: as §5

[15] = system: HaCaT keratinocytes; conditions: Shibata A et al. 2010; cited from earlier work
[16] = dermal fibroblasts, no UVB, FIG. 2A

For Cc1c(C)c2c(c(C)c1O)CC[C@@](C)(CCC[C@H](C)CCC[C@H](C)CCCC(C)C)O2 [D-alpha-tocopherol], the “UVB-induced DNA damage” value [1] is given as “prevented”.

With Cc1c(C)c2c(c(C)c1O)CCC(C)(CC[P+](c1ccccc1)(c1ccccc1)c1ccccc1)O2.[Br-] (centres unmarked) [MVE] the “protection of fibroblasts from UVB” value ([2]; 10~1000 nM, p<0.01, FIG. 1C) was “protected”, the “fibroblast survival (UVB irradiation), low concentrations” value ([2]; UVB 200 mJ, 0.1 and 1 μM, concentration-dependent, FIG. 1A) was “increased” and the “fibroblast survival (UVB irradiation), high concentrations” value ([2]; UVB 200 mJ, 10 to 100 μM, concentration-dependent, FIG. 1A) was “decreased”. The fibroblast proliferation [3] was “increased”, the “collagen mRNA expression” value [4, 16] was “increased” and the “mRNA level of collagen reduced by UVB irradiation” value ([4]; fibroblasts with UVB, FIG. 2B) was “attenuated”. The “MMP1 mRNA expression” value [5, 16] was “down-regulated”, the “mRNA level of MMP1 increased by UVB” value ([5]; fibroblasts with UVB, FIG. 2B) was “reduced” and the “protein level of collagen” value [6] was “altered”. For the same molecule, the “protein level of MMP1” value [7] was “altered”, the “cytosolic ROS level: fluorescent signal intensity of DCF-DA” value [8] was “attenuated” and the “mitochondria ROS production: signal intensity of mito-Sox” value [9] was “reduced”. For the same molecule, the “proliferation of HaCaT cells” value [10] was “significantly increased”, the UVB-reduced cell viability [11] was “increased” and the “UVB-induced p53 protein levels” value [12] was “reduced”. The “cytosolic ROS level: fluorescent signal intensity of DCF-DA” value [13] was “attenuated” and the “mitochondrial ROS production: signal intensity of mito-Sox” value [14] was “reduced”.

For CC(C)=CCC/C(C)=C/CC/C(C)=C/CC[C@]1(C)CCc2cc(O)c(C)c(C)c2O1 [γ-tocotrienol], the “protection from UVB induced inflammation” value [15] is given as “protected”.

For vitamin E [reference compound], the “survival of dermal fibroblasts from UVB irradiation” value ([2]; UVB 200 mJ, 0.1 to 100 μM, FIG. 1A) was “slightly increased”.
